In patent US10144713B1, “Bis-cyclic guanidines as antibacterial agents” (UNIVERSITY OF SOUTH FLORIDA, priority 2017, dated 2018):

How the values were obtained:
[1] = system: human red blood cells (hRBCs); experiment: Hemolytic assay; format: cell-based
Protocol: The freshly drawn, K2EDTA treated human red blood cells (hRBCs) were washed with 1×PBS buffer, and centrifuged at 3500 rpm for 10 min. The step was repeated until the supernatant became clear. The supernatant was removed, and the RBCs were diluted into 5% v/v suspension. 50 μL of the suspension was incubated with 50 μL of compounds of different concentrations at 37° C. for 1 h. The mixture was centrifuged at 3500 rpm for 10 min. Subsequently, to 30 μL of the supernatant 100 μL PBS was added, and the absorbance of the mixture at 540 nm was read on a Biotek Synergy HT plate reader. The positive control was 2% Triton X-100, and the negative control was 1×PBS alone. The hemolysis activity was calculated by the formula % hemolysis=(Abssample−AbsPBS)/(AbsTriton−AbsPBS)×100%. The experiment was repeated at least three times with duplicates each time.

[2] = system: S. aureus ATCC 33591; experiment: Thigh burden infection model in neutropenic mice; format: in vivo, CD-1 female mice; conditions: 5 mg/kg i.v. at 1 and 7 h after infection, thighs harvested at 25 h
Protocol: Neutropenic mice (n=4 per group) were inoculated in the posterior thigh muscles with S. aureus ATCC 33591 at 1×10^6 CFU per thigh and then treated with compounds 11 and 12 (5 mg/kg per dose) by i.v. bolus injection in the tail vein at 1 and 7 h after infection.
A thigh burden model was employed to evaluate the in vivo anti-infective activity of compounds 11 and 12, in which the thigh muscle of neutropenic mice was inoculated with S. aureus, followed by intravenous (i.v.) administration of corresponding compounds. All protocols and methods associated with animal experiments were approved by University of South Florida (USF) Institutional Animal Care and Use Committee. The in vivo experiment on the mouse model of the thigh burden infection with MRSA was conducted adapted from previously reported protocol. The CD-1 female mice which were 6 to 8 weeks old and around 25 g in weights were used for the study. Neutropenic Mice were induced by injecting cyclophosphamide (150 mg/kg) intraperitoneally twice at 4 and 1 days before bacterial inoculation. One MRSA colony from tryptic soy agar (TSA) cultures was allowed to grow in tryptic soy broth (TSB) overnight at 37° C., then 100 μL culture was withdrawn and diluted with TSB to a total volume of 4 mL, which was subsequently incubated at 37° C. for another 6 h. […] The formed colonies were counted to calculate CFU per thigh.

[3] = system: E. coli; experiment: Drug-resistance study, 14 passages, E. coli; format: cell-based; conditions: half-MIC exposure, 14 successive passages
Protocol: (§1) Bacterial resistance tests were conducted using compound 12. The compound was incubated with either MRSA or E. Coli in the well at the concentration of half-MIC (½ MIC, 10^6 CFU/ml) every day and tested for their activity through 14 successive passages.

[4] = system: E. coli; experiment: Fluorescence microscopy (DAPI/PI) of bacterial membranes, E. coli; format: cell-based; conditions: 10 μg/mL, 2 h, 37° C.
Protocol: Fluorescence microscopy studies were conducted to evaluate the ability of compound 12 to compromise membranes of S. aureus (Gram-positive bacterium) and E. coli (Gram-negative bacterium). Fluorescent agent 4′,6-diamidino-2-phenylindole (DAPI) was used to stain membranes of bacterial cells with blue fluorescence regardless of cell viability, and the red fluorescence of propidium iodide (PI) due to the DNA intercalation was used to stain impaired membranes. After MRSA and E. Coli grew to mid-logarithmic phase, the compound 12 was incubated with the bacteria at 37° C. for 2 h. The mixture was then centrifuged at 5000 rpm for 15 min. The cell pellets were washed with the PBS buffer for three times, and incubated with PI ([…]) and DAPI (10 μg/mL) for 15 min sequentially on ice in the dark. The mixture was then centrifuged and the pellets were washed with the PBS buffer. Next, 10 μL of the samples were placed on chamber slides and observed under Zeiss Axio Image Zloptical microscope using 100× oil-immersion objective.

[5] = system: MRSA; experiment: Drug-resistance study, 14 passages, MRSA; format: cell-based, S. aureus; conditions: half-MIC exposure, 14 successive passages
Protocol: as §1

[6] = system: Methicillin-resistant S. epidermidis (MRSE, RP62A); experiment: MIC against MRSE; format: cell-based; conditions: Staphylococcus epidermidis, MRSE; Gram +; 16 h, 37° C.
Protocol: (§2) Minimum Inhibitory Concentrations (MICs) Against Bacteria.
(§3) The antimicrobial activity of the compounds was tested on the following six bacteria strains: K. pneumoniae (ATCC 13383), P. aeruginosa (ATCC27853), E. coli (ATCC 25922), vancomycin-resistant Enterococcus faecalis(ATCC 700802), Methicillin-resistant S. aureus (MRSA, ATCC 33591), Methicillin-resistant S. epidermidis (MRSE, RP62A). The procedures were followed as reported previously (Hancock et al., Immunobiology 2006, 211, 315-322). Briefly, a single colony of each bacterium was inoculated in 3 mL TSB medium and incubated overnight at 37° C. Then the bacteria culture was diluted at 1:100 and the bacteria were allowed to grow to mid-logarithmic phase. Next, 50 μL of 2-fold serial dilutions of compounds (0.1-25 μg/mL) were added the 96-well plate containing aliquots of 50 μL of bacteria suspension (1×10^6 CFU/mL) in each well. The mixture was incubated at 37° C. for 16 h, and their absorption at 600 nm wavelength was read on a Biotek Synergy HT microtiter plate reader. […] The experiments were repeated at least three times with duplicates each time. HC50 means the concentration causing 50% hemolysis.

[7] = system: Methicillin-resistant S. aureus (MRSA, ATCC 33591); experiment: MIC against MRSA; format: cell-based; conditions: Staphylococcus aureus; Gram +; 16 h, 37° C.
Protocol: as §2, §3

[8] = system: E. coli (ATCC 25922); experiment: MIC against E. coli; format: cell-based; conditions: Escherichia coli, ATCC25922; Gram −; 16 h, 37° C.
Protocol: as §2, §3

[9] = system: vancomycin-resistant Enterococcus faecalis (ATCC 700802); experiment: MIC against VRE; format: cell-based; conditions: Gram +; 16 h, 37° C.
Protocol: as §2, §3

Q: With `CCCCCCN1C(=N)N(CC(=O)Nc2cccc(NC(=O)CN3C[C@H](Cc4ccccc4)N(CCCCCC)C3=N)c2)C[C@@H]1Cc1ccccc1` [Compound 12] as the compound, how does the “selectivity, hemolytic activity against MIC values of MRSA” value [1] read?
A: 1534 folds

Q: What about the “decrease in colony-forming unit (CFU) per thigh” value [2] of the same compound?
A: 5 log10 CFU

Q: And the “MIC after 14 passages” value [3]?
A: virtually constant

Q: What about the “membrane integrity of E. coli (PI red fluorescence)” value [4] of the same compound?
A: disrupted

Q: What about the “MIC after 14 passages” value [5] of the same compound?
A: virtually constant

Q: What about the MIC [6] of the same compound?
A: 0.75 µg/mL

Q: And the MIC [7]?
A: 0.16 µg/mL

Q: What about the MIC [8] of the same compound?
A: 0.75 µg/mL

Q: And the MIC [9]?
A: 0.75 µg/mL
